# Experiments:
# [1] = Hepatic microsome stability assay, human; type: in vitro ADME
# Description: (§1) Hepatic Microsome Assay. Hepatic microsomes stability assays were performed in accordance with known methods (Peddibhotla, et al. (2013) ACS Med. Chem. Lett. 4:846-851). Briefly, 3 μL of 25 μM compound solution in acetonitrile were incubated with 123 μL of mouse, human or rat liver microsomes (Xenotech, Kansas City, Kans.). […] The microsomal concentrations used were 1.0 mg/mL. Compounds were incubated in microsomes for 0, 5, 15, 30 and 60 minutes. The reactions were stopped by the addition of ice cold ACN and the reaction mixtures were centrifuged at 10,000 g for 10 minutes before the supernatant was removed for analysis. A 10 μL portion of the resulting extract was injected on a Thermo HPLC system equipped with PAL CTC plate sampler (96-well plate), Dionex Ultimate 3000 binary pump (flow rate at 0.600 mL/min), Dionex Ultimate 3000 thermostatted column compartment (temperature at 40° C.), Thermo Endura Mass Spectrometer (ESI source), using a Thermo Scientific Accucore C18 (2.6 μM, 2.1×50 mm) column. A gradient was run starting at 95% H2O (0.1% formic acid) and 5% ACN (0.1% formic acid) during the first 0.5 min, then under gradient condition of 5-100% ACN (0.1% formic acid) from minute 0.5 to 3.5, finishing at 95% H2O (0.1% formic acid) and 5% ACN (0.1% formic acid) over 0.5 min, with another 1 min at 95:5 to re-equilibrate.
# [2] = test system: HNF4α mRNA; experiment: HNF4α mRNA levels by quantitative PCR; type: cell-based; conditions: FIG. 3
# Description: (§2) Expression of Insulin and HNF4α. RNA was purified using a RNEASY® chromatographic separation and isolation kits (Qiagen), and converted to cDNA using the gScript™ cDNA SuperMix (Quanta Biosciences). Q-PCR was conducted with cDNA corresponding to 2 μg of RNA using an Opticon Real-Time System (MJ Research) and QPCR SuperMix (BioPioneer). See All mRNA values were normalized to 18S rRNA values and are expressed as fold changes over vehicle-treated control.
# [3] = Hepatic microsome stability assay, mouse; type: in vitro ADME; conditions: mouse microsomes
# Description: as §1
# [4] = test system: insulin mRNA; experiment: Insulin mRNA levels by quantitative PCR; type: cell-based; conditions: FIG. 2
# Description: as §2
# [5] = target: T1, HNF4α (Homo sapiens, UniProt P41235); experiment: Insulin promoter activity assay in T6PNE cells (HNF4α activity); type: cell-based
# T1 construct: endogenous in cells; host or cells: T6PNE cells
# T1 sequence (P41235 1-474): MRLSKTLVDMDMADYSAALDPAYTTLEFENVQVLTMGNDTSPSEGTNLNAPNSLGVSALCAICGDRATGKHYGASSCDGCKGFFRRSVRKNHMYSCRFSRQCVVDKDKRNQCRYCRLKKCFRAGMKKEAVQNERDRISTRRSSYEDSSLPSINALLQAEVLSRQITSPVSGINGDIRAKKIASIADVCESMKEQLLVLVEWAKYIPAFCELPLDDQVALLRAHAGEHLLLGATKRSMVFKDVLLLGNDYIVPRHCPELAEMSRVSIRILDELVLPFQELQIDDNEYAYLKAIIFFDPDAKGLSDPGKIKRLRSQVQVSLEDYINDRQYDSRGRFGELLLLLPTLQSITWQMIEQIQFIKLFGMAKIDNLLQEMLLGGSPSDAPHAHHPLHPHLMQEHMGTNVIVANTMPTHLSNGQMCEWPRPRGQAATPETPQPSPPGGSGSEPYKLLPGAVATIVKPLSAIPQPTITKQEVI
# Description: Insulin Promoter Activity. T6PNE cells (Kiselyuk, et al. (2012) Chem Biol. 19(7):806-818; Kiselyuk, et al. (2010) J. Biomol. Screen 15(6):663-70) are seeded at 2000 cells per well in 384-well tissue culture plates in the presence of 1 μM tamoxifen and 0.03 mM palmitate. After a 24-hour incubation, a compound or extract of the invention is added to the cells. Forty-eight hours after compound or extract addition, cells are fixed in 4% paraformaldehyde and stained with DAPI. Blue (DAPI) and green (human insulin promoter driving GFP) channels are imaged.
# Inhibition of HNF4α GFP Expression. Using the insulin promoter assay described herein, activity of HNF4α was assessed in the presence of BI-6015 (0, 2.5, 5 μM), a known antagonist of HNF4α (Kiselyuk, et al. (2012) Chem. Biol. 19(7):806-818), in combination with N-trans-caffeoyltyramine (0, 5, 10, 20 μM).
# Given the role of HNF4α in maintaining a heal thy metabolism in humans, test compounds were screened for activity as HNF4α agonists (either direct or indirect effects). Using a known insulin promoter-reporter assay, Kiselyuk and colleagues (2010. J. Biomol. Screen 15(6):663-70), screened a library of compounds for activity to promote insulin activation. […] The OTC promoter is known to be responsive to HNF4α in transient transfection assays (Inoue, et al. (2002) J. Biol. Chem. 277:25257-65).
# [6] = test system: HepG2 cells; experiment: Lipid clearance in HepG2 cells (steatosis assay, Oil Red O); type: cell-based; conditions: HepG2 liver cells, 20 μM
# Description: Lipid Clearance in HepG2 and T6PNE Cells (Steatosis Assay). The steatosis assay was carried out as described (Kiselyuk, et al. (2012) Chem. Biol. 19(7):806-818) with the exception of the drug concentration, which was 20 μM for N-trans-caffeoyltyramine with 0.25 mM palmitate in HepG2 cell lines, and 10 μM of either N-trans-caffeoyltyramine, N-trans-caffeoyltyramine, or pcoumaroyltyramine, with 0.25 mM palmitate in T6PNE cell lines. Steatosis was assessed using the Oil Red 0 Method for Fats kits (Poly Scientific; Warrington, PA), per manufacturer's guidelines. Briefly, frozen tissue slides or fixed cells were incubated in neat propylene glycol for 2 minutes and Oil Red 0 solution for 15 hours for slides or 1 hour for fixed cells, differentiated in 85% propylene glycol solution for 1 minute, washed twice with distilled water and stained in Hematoxylin of 10 seconds. Slides were mounted with glycerin jelly mounting medium.
# [7] = pH stability assessment; type: physicochemical; conditions: pH 2, 7.4, 8.5 and 10, 37° C., 0.5 and 72 hours
# Description: pH Stability Assessment. Individual stock solutions were prepared in DMSO at concentrations of 10 mg/mL. Four different buffer solutions were prepared to achieve solutions with a pH of 2, 7.4, 8.5 and 10. For each pH assay, 5 μL of stock solution was added to 245 μL of buffered solution to a 2 mL tube, vortexed and incubated in a 37° C. water bath. At each timepoint, 50 μL aliquots were taken, neutralized and analyzed via HPLC analysis using a DAD detector at 280 nm. The fold change of the peak area at 280 nm was analyzed for the initial and final timepoint, 0.5 and 72 hours, respectively.
compound,measurement,setting,value
O=C(/C=C/c1ccc(O)c(O)c1)NCCc1ccc(O)cc1 [N-trans-caffeoyltyramine],Apparent major biotransformation pathway,[1]; human microsomes,oxidation of the left-hand aryl ring
same,% Remaining,"[1]; human microsomes, 1 μM",55.3%
same,% Remaining,"[1]; human microsomes, 10 μM",85.4%
same,Stability in hepatic microsomes,"[1]; human, rat and mouse hepatic microsomes",stable
same,HNF4α gene expression,[2],upregulated
same,% Remaining,[3]; 1 μM,0.4%
same,% Remaining,[3]; 10 μM,0.3%
same,Insulin gene expression,[4],upregulated
same,Potency in activating HNF4α relative to Alverine,"[5]; FIG. 1, insulin promoter activity dose-response",roughly an order-of-magnitude more potent than Alverine
same,HNF4α modulation in screening,[5]; screening in the HNF4α assay,able to act as HNF4α modulators
same,Clearing of fats (Oil Red O staining),[6],capable of clearing harmful fats from the liver
same,Accumulation of fats,[6]; 0.25 mM palmitate,inhibited accumulation of fats
same,pH Stability,[7],Acid Stable

# Reference: patent US12285392B2, “Method for modulating metabolism” (Brightseed, Inc., priority 2018, dated 2025)
